# In US20250026778A1 (TIUMBIO CO., LTD., priority 2021, published 2025):
# Like-named read-outs stand apart in the source and are kept apart here.
# Biological target: T1, his-galectin-3 (Homo sapiens, UniProt P17931)
# T1 construct: purchased Abcam
# Experiment: TR-FRET assay (in vitro galectin-3 binding inhibitory activity test)
# Details: compound at 20 μM, 60 nM his-galectin-3, 15 nM biotin-ASF
# How it was run: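 Compound is premixed with his-galectin-3 (60 nM final), then biotin-ASF (15 nM), Tb anti-His antibody (2 nM) and streptavidin-d2 (20 nM) are added. After at least 3.5 hours at RT in HEPES/NaCl buffer with Tween 20 and BSA, TR-FRET is read at 615/665 nm. DMSO serves as the uninhibited control, ASF omission as background.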
# [1] = read-out: % Inhibitory activity (at 20 μM), Table 1
# [2] = Table 1, read-out: % Inhibitory activity (at 20 μM)
# T1 sequence (P17931 whole entry): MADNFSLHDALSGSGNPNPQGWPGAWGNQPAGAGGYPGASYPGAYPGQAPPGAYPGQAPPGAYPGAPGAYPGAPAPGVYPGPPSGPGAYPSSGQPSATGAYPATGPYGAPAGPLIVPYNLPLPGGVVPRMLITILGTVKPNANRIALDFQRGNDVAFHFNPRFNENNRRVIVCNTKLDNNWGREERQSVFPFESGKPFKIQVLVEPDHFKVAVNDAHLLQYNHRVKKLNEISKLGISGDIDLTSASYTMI
Structure (SMILES),inhibition at 20 µM [1] [%],"inhibition at 20 µM (read-out: % Inhibitory activity (at 20 μM), Table 3, found values) [%]",inhibition at 20 µM [2] [%]
"OC[C@H]1O[C@@]2(CCCO2)[C@H](OCc2cccc(Cl)c2)[C@@H](n2cc(-c3cc(F)c(F)c(F)c3)nn2)[C@H]1O [Compound A64, (5S,7R,8R,9S,10R)-10-((3-chlorobenzyl)oxy)-7-(hydroxymethyl)-9-(4-(3,4,5-trifluorophenyl)-1H-1,2,3-triazol-1-yl)-1,6-dioxaspiro[4.5]decan-8-ol]",< 25,,
"OC[C@H]1O[C@@]2(CCCO2)[C@H](OCc2cccc(F)c2F)[C@@H](n2cc(-c3cc(F)c(F)c(F)c3)nn2)[C@H]1O [Compound A65, (5S,7R,8R,9S,10R)-10-((2,3-difluorobenzyl)oxy)-7-(hydroxymethyl)-9-(4-(3,4,5-trifluorophenyl)-1H-1,2,3-triazol-1-yl)-1,6-dioxaspiro[4.5]decan-8-ol]",< 25,17.3,
"CC(O[C@@H]1[C@@H](n2cc(-c3cc(F)c(F)c(F)c3)nn2)[C@@H](O)[C@@H](CO)O[C@@]12CCCO2)C(=O)O (stereo partly drawn) [Compound A66, 2-(((5S,7R,8R,9S,10R)-8-hydroxy-7-(hydroxymethyl)-9-(4-(3,4,5-trifluorophenyl)-1H-1,2,3-triazol-1-yl)-1,6-dioxaspiro[4.5]decan-10-yl)oxy)propanoic acid]",25 to 50,,
"O=C(O[C@@H]1[C@@H](n2cc(-c3cc(F)c(F)c(F)c3)nn2)[C@@H](O)[C@@H](CO)O[C@@]12CCCO2)c1ccccc1F [Compound A69, (5S,7R,8R,9S,10R)-8-hydroxy-7-(hydroxymethyl)-9-(4-(3,4,5-trifluorophenyl)-1H-1,2,3-triazol-1-yl)-1,6-dioxaspiro[4.5]decan-10-yl 2-fluorobenzoate]",25 to 50,,
"O=C(O[C@@H]1[C@@H](n2cc(-c3cc(F)c(F)c(F)c3)nn2)[C@@H](O)[C@@H](CO)O[C@@]12CCCO2)c1ccccc1Cl [Compound A70, (5S,7R,8R,9S,10R)-8-hydroxy-7-(hydroxymethyl)-9-(4-(3,4,5-trifluorophenyl)-1H-1,2,3-triazol-1-yl)-1,6-dioxaspiro[4.5]decan-10-yl 2-chlorobenzoate]",,,< 25
"O=C(O[C@@H]1[C@@H](n2cc(-c3cc(F)c(F)c(F)c3)nn2)[C@@H](O)[C@@H](CO)O[C@@]12CCCO2)c1cccc(F)c1F [Compound A71, (5S,7R,8R,9S,10R)-8-hydroxy-7-(hydroxymethyl)-9-(4-(3,4,5-trifluorophenyl)-1H-1,2,3-triazol-1-yl)-1,6-dioxaspiro[4.5]decan-10-yl 2,3-difluorobenzoate]",,,25 to 50
"O=C(O[C@@H]1[C@@H](n2cc(-c3cc(F)c(F)c(F)c3)nn2)[C@@H](O)[C@@H](CO)O[C@@]12CCCO2)c1ccccn1 [Compound A72, (5S,7R,8R,9S,10R)-8-hydroxy-7-(hydroxymethyl)-9-(4-(3,4,5-trifluorophenyl)-1H-1,2,3-triazol-1-yl)-1,6-dioxaspiro[4.5]decan-10-yl picolinate]",,,50 to 75
"O=C(O[C@@H]1[C@@H](n2cc(-c3cc(F)c(F)c(F)c3)nn2)[C@@H](O)[C@@H](CO)O[C@@]12CCCO2)c1cccc(C(F)(F)F)c1 [Compound A73, (5S,7R,8R,9S,10R)-8-hydroxy-7-(hydroxymethyl)-9-(4-(3,4,5-trifluorophenyl)-1H-1,2,3-triazol-1-yl)-1,6-dioxaspiro[4.5]decan-10-yl 3-(trifluoromethyl)benzoate]",,,< 25
"O=P(O)(O)O[C@@H]1[C@@H](n2cc(-c3cc(F)c(F)c(F)c3)nn2)[C@@H](O)[C@@H](CO)O[C@@]12CCCCO2 [Compound A76, (2R,3R,4S,5R,6S)-3-hydroxy-2-(hydroxymethyl)-4-(4-(3,4,5-trifluorophenyl)-1H-1,2,3-triazol-1-yl)-1,7-dioxaspiro[5.5]undecan-5-yl dihydrogen phosphate]",,,50 to 75
